HELM strings list units from the 5' end as sugar, base in round brackets, then linkage (d deoxyribose, r ribose, m 2'-O-methyl, p phosphodiester). Strings are as the collection lists them, not checked against the first reports. ss, as = sense and antisense strand; [s4r] = 4'-thioribose
Further: test system not given here.

The conditions of the data set: siRNA.
The substance “RNA1{[s4r](A)p.[s4r](A)p.[s4r](A)p.[s4r](C)p.r(A)p.r(U)p.r(G)p.r(C)p.r(A)p.r(G)p.r(A)p.r(A)p.r(A)p.r(A)p.r(U)p.r(G)p.r(C)p.r(U)p.r(G)p.r(T)p.r(T)}|RNA2{r(C)p.r(A)p.r(G)p.r(C)p.r(A)p.r(U)p.r(U)p.r(U)p.r(U)p.r(C)p.r(U)p.r(G)p.r(C)p.r(A)p.r(U)p.r(G)p.r(U)p.[s4r](U)p.[s4r](U)p.r(T)p.r(T)}$$$RNA1{StrandType:ss}|RNA2{StrandType:as}$” displayed a target mRNA knockdown of 76.5%.

As to “RNA1{[s4r](A)p.[s4r](A)p.[s4r](A)p.[s4r](C)p.r(A)p.r(U)p.r(G)p.r(C)p.r(A)p.r(G)p.r(A)p.r(A)p.r(A)p.r(A)p.r(U)p.r(G)p.r(C)p.r(U)p.r(G)p.r(T)p.r(T)}|RNA2{r(C)p.r(A)p.r(G)p.r(C)p.r(A)p.r(U)p.r(U)p.r(U)p.r(U)p.r(C)p.r(U)p.r(G)p.r(C)p.r(A)p.r(U)p.r(G)p.r(U)p.r(U)p.r(U)p.r(T)p.r(T)}$$$RNA1{StrandType:ss}|RNA2{StrandType:as}$”, the target mRNA knockdown came to 70.4%.

Consider “RNA1{[s4r](A)p.[s4r](A)p.r(A)p.r(C)p.r(A)p.r(U)p.r(G)p.r(C)p.r(A)p.r(G)p.r(A)p.r(A)p.r(A)p.r(A)p.r(U)p.r(G)p.r(C)p.r(U)p.r(G)p.r(T)p.r(T)}|RNA2{[s4r](C)p.[s4r](A)p.r(G)p.r(C)p.r(A)p.r(U)p.r(U)p.r(U)p.r(U)p.r(C)p.r(U)p.r(G)p.r(C)p.r(A)p.r(U)p.r(G)p.r(U)p.[s4r](U)p.[s4r](U)p.r(T)p.r(T)}$$$RNA1{StrandType:ss}|RNA2{StrandType:as}$”, for which the target mRNA knockdown was determined as 44.8%.

As to “RNA1{[s4r](A)p.[s4r](A)p.r(A)p.r(C)p.r(A)p.r(U)p.r(G)p.r(C)p.r(A)p.r(G)p.r(A)p.r(A)p.r(A)p.r(A)p.r(U)p.r(G)p.r(C)p.r(U)p.r(G)p.r(T)p.r(T)}|RNA2{r(C)p.r(A)p.r(G)p.r(C)p.r(A)p.r(U)p.r(U)p.r(U)p.r(U)p.r(C)p.r(U)p.r(G)p.r(C)p.r(A)p.r(U)p.[s4r](G)p.[s4r](U)p.[s4r](U)p.[s4r](U)p.r(T)p.r(T)}$$$RNA1{StrandType:ss}|RNA2{StrandType:as}$”, the target mRNA knockdown was 70.9%.

In turn, “RNA1{[s4r](A)p.[s4r](A)p.r(A)p.r(C)p.r(A)p.r(U)p.r(G)p.r(C)p.r(A)p.r(G)p.r(A)p.r(A)p.r(A)p.r(A)p.r(U)p.r(G)p.r(C)p.r(U)p.r(G)p.r(T)p.r(T)}|RNA2{r(C)p.r(A)p.r(G)p.r(C)p.r(A)p.r(U)p.r(U)p.r(U)p.r(U)p.r(C)p.r(U)p.r(G)p.r(C)p.r(A)p.r(U)p.r(G)p.r(U)p.[s4r](U)p.[s4r](U)p.r(T)p.r(T)}$$$RNA1{StrandType:ss}|RNA2{StrandType:as}$” displayed a target mRNA knockdown of 72.4%.

“RNA1{[s4r](A)p.[s4r](A)p.r(A)p.r(C)p.r(A)p.r(U)p.r(G)p.r(C)p.r(A)p.r(G)p.r(A)p.r(A)p.r(A)p.r(A)p.r(U)p.r(G)p.r(C)p.r(U)p.r(G)p.r(T)p.r(T)}|RNA2{r(C)p.r(A)p.r(G)p.r(C)p.r(A)p.r(U)p.r(U)p.r(U)p.r(U)p.r(C)p.r(U)p.r(G)p.r(C)p.r(A)p.r(U)p.r(G)p.r(U)p.r(U)p.r(U)p.r(T)p.r(T)}$$$RNA1{StrandType:ss}|RNA2{StrandType:as}$” came in with a target mRNA knockdown of 69.5%.

“RNA1{[s4r](C)p.[s4r](G)p.[s4r](U)p.[s4r](A)p.[s4r](C)p.[s4r](G)p.[s4r](C)p.[s4r](G)p.[s4r](G)p.[s4r](A)p.[s4r](A)p.[s4r](U)p.[s4r](A)p.[s4r](C)p.[s4r](U)p.[s4r](U)p.[s4r](C)p.[s4r](G)p.[s4r](A)p.r(T)p.r(T)}|RNA2{r(U)p.r(C)p.r(G)p.r(A)p.r(A)p.r(G)p.r(U)p.r(A)p.r(U)p.r(U)p.r(C)p.r(C)p.r(G)p.r(C)p.r(G)p.r(U)p.r(A)p.r(C)p.r(G)p.r(T)p.r(T)}$$$RNA1{StrandType:ss}|RNA2{StrandType:as}$” yielded a target mRNA knockdown of 60.3%.

With “RNA1{[s4r](C)p.[s4r](G)p.[s4r](U)p.[s4r](A)p.[s4r](C)p.[s4r](G)p.r(C)p.r(G)p.r(G)p.r(A)p.r(A)p.r(U)p.r(A)p.[s4r](C)p.[s4r](U)p.[s4r](U)p.[s4r](C)p.[s4r](G)p.[s4r](A)p.r(T)p.r(T)}|RNA2{[s4r](U)p.[s4r](C)p.[s4r](G)p.[s4r](A)p.[s4r](A)p.[s4r](G)p.r(U)p.r(A)p.r(U)p.r(U)p.r(C)p.r(C)p.r(G)p.[s4r](C)p.[s4r](G)p.[s4r](U)p.[s4r](A)p.[s4r](C)p.[s4r](G)p.r(T)p.r(T)}$$$RNA1{StrandType:ss}|RNA2{StrandType:as}$”, the target mRNA knockdown was 0%.

For the substance “RNA1{[s4r](C)p.[s4r](G)p.[s4r](U)p.[s4r](A)p.[s4r](C)p.[s4r](G)p.r(C)p.r(G)p.r(G)p.r(A)p.r(A)p.r(U)p.r(A)p.[s4r](C)p.[s4r](U)p.[s4r](U)p.[s4r](C)p.[s4r](G)p.[s4r](A)p.r(T)p.r(T)}|RNA2{[s4r](U)p.[s4r](C)p.r(G)p.r(A)p.r(A)p.r(G)p.r(U)p.r(A)p.r(U)p.r(U)p.r(C)p.r(C)p.r(G)p.r(C)p.r(G)p.r(U)p.r(A)p.[s4r](C)p.[s4r](G)p.r(T)p.r(T)}$$$RNA1{StrandType:ss}|RNA2{StrandType:as}$”, the target mRNA knockdown turned out to be 28.6%.

Turning to “RNA1{[s4r](C)p.[s4r](G)p.[s4r](U)p.[s4r](A)p.[s4r](C)p.[s4r](G)p.r(C)p.r(G)p.r(G)p.r(A)p.r(A)p.r(U)p.r(A)p.[s4r](C)p.[s4r](U)p.[s4r](U)p.[s4r](C)p.[s4r](G)p.[s4r](A)p.r(T)p.r(T)}|RNA2{r(G)p.r(C)p.r(G)p.r(A)p.r(A)p.r(G)p.r(U)p.r(A)p.r(U)p.r(U)p.r(C)p.r(C)p.r(G)p.r(C)p.r(G)p.r(U)p.r(A)p.[s4r](C)p.[s4r](G)p.r(T)p.r(T)}$$$RNA1{StrandType:ss}|RNA2{StrandType:as}$”, the target mRNA knockdown came to 74.2%.

Take “RNA1{[s4r](C)p.[s4r](G)p.[s4r](U)p.[s4r](A)p.[s4r](C)p.[s4r](G)p.r(C)p.r(G)p.r(G)p.r(A)p.r(A)p.r(U)p.r(A)p.[s4r](C)p.[s4r](U)p.[s4r](U)p.[s4r](C)p.[s4r](G)p.[s4r](A)p.r(T)p.r(T)}|RNA2{r(U)p.r(C)p.r(G)p.r(A)p.r(A)p.r(G)p.r(U)p.r(A)p.r(U)p.r(U)p.r(C)p.r(C)p.r(G)p.r(C)p.r(G)p.[s4r](U)p.[s4r](A)p.[s4r](C)p.[s4r](G)p.r(T)p.r(T)}$$$RNA1{StrandType:ss}|RNA2{StrandType:as}$”: the target mRNA knockdown stood at 44.4%.

Turning to “RNA1{[s4r](C)p.[s4r](G)p.[s4r](U)p.[s4r](A)p.[s4r](C)p.[s4r](G)p.r(C)p.r(G)p.r(G)p.r(A)p.r(A)p.r(U)p.r(A)p.[s4r](C)p.[s4r](U)p.[s4r](U)p.[s4r](C)p.[s4r](G)p.[s4r](A)p.r(T)p.r(T)}|RNA2{r(U)p.r(C)p.r(G)p.r(A)p.r(A)p.r(G)p.r(U)p.r(A)p.r(U)p.r(U)p.r(C)p.r(C)p.r(G)p.r(C)p.r(G)p.r(U)p.r(A)p.r(C)p.r(G)p.r(T)p.r(T)}$$$RNA1{StrandType:ss}|RNA2{StrandType:as}$”, the target mRNA knockdown stood at 91.5%.

As to “RNA1{[s4r](C)p.[s4r](G)p.[s4r](U)p.[s4r](A)p.[s4r](C)p.[s4r](G)p.r(C)p.r(G)p.r(G)p.r(A)p.r(A)p.r(U)p.r(A)p.r(C)p.r(U)p.r(U)p.r(C)p.r(G)p.r(A)p.r(T)p.r(T)}|RNA2{r(U)p.r(C)p.r(G)p.r(A)p.r(A)p.r(G)p.r(U)p.r(A)p.r(U)p.r(U)p.r(C)p.r(C)p.r(G)p.[s4r](C)p.[s4r](G)p.[s4r](U)p.[s4r](A)p.[s4r](C)p.[s4r](G)p.r(T)p.r(T)}$$$RNA1{StrandType:ss}|RNA2{StrandType:as}$”, the target mRNA knockdown was 47.8%.

Take “RNA1{[s4r](C)p.[s4r](G)p.[s4r](U)p.[s4r](A)p.[s4r](C)p.[s4r](G)p.r(C)p.r(G)p.r(G)p.r(A)p.r(A)p.r(U)p.r(A)p.r(C)p.r(U)p.r(U)p.r(C)p.r(G)p.r(A)p.r(T)p.r(T)}|RNA2{r(U)p.r(C)p.r(G)p.r(A)p.r(A)p.r(G)p.r(U)p.r(A)p.r(U)p.r(U)p.r(C)p.r(C)p.r(G)p.r(C)p.r(G)p.r(U)p.r(A)p.r(C)p.r(G)p.r(T)p.r(T)}$$$RNA1{StrandType:ss}|RNA2{StrandType:as}$”: the target mRNA knockdown worked out at 94%.

Turning to “RNA1{[s4r](C)p.[s4r](G)p.[s4r](U)p.[s4r](A)p.r(C)p.r(G)p.r(C)p.r(G)p.r(G)p.r(A)p.r(A)p.r(U)p.r(A)p.r(C)p.r(U)p.[s4r](U)p.[s4r](C)p.[s4r](G)p.[s4r](A)p.r(T)p.r(T)}|RNA2{[s4r](U)p.[s4r](C)p.[s4r](G)p.[s4r](A)p.r(A)p.r(G)p.r(U)p.r(A)p.r(U)p.r(U)p.r(C)p.r(C)p.r(G)p.r(C)p.r(G)p.[s4r](U)p.[s4r](A)p.[s4r](C)p.[s4r](G)p.r(T)p.r(T)}$$$RNA1{StrandType:ss}|RNA2{StrandType:as}$”, the target mRNA knockdown came to 0%.

“RNA1{[s4r](C)p.[s4r](G)p.[s4r](U)p.[s4r](A)p.r(C)p.r(G)p.r(C)p.r(G)p.r(G)p.r(A)p.r(A)p.r(U)p.r(A)p.r(C)p.r(U)p.[s4r](U)p.[s4r](C)p.[s4r](G)p.[s4r](A)p.r(T)p.r(T)}|RNA2{[s4r](U)p.[s4r](C)p.r(G)p.r(A)p.r(A)p.r(G)p.r(U)p.r(A)p.r(U)p.r(U)p.r(C)p.r(C)p.r(G)p.r(C)p.r(G)p.r(U)p.r(A)p.[s4r](C)p.[s4r](G)p.r(T)p.r(T)}$$$RNA1{StrandType:ss}|RNA2{StrandType:as}$” showed a target mRNA knockdown of 87.7%.

The substance “RNA1{[s4r](C)p.[s4r](G)p.[s4r](U)p.[s4r](A)p.r(C)p.r(G)p.r(C)p.r(G)p.r(G)p.r(A)p.r(A)p.r(U)p.r(A)p.r(C)p.r(U)p.[s4r](U)p.[s4r](C)p.[s4r](G)p.[s4r](A)p.r(T)p.r(T)}|RNA2{r(U)p.r(C)p.r(G)p.r(A)p.r(A)p.r(G)p.r(U)p.r(A)p.r(U)p.r(U)p.r(C)p.r(C)p.r(G)p.r(C)p.r(G)p.[s4r](U)p.[s4r](A)p.[s4r](C)p.[s4r](G)p.r(T)p.r(T)}$$$RNA1{StrandType:ss}|RNA2{StrandType:as}$” came in with a target mRNA knockdown of 88.1%.

With “RNA1{[s4r](C)p.[s4r](G)p.[s4r](U)p.[s4r](A)p.r(C)p.r(G)p.r(C)p.r(G)p.r(G)p.r(A)p.r(A)p.r(U)p.r(A)p.r(C)p.r(U)p.[s4r](U)p.[s4r](C)p.[s4r](G)p.[s4r](A)p.r(T)p.r(T)}|RNA2{r(U)p.r(C)p.r(G)p.r(A)p.r(A)p.r(G)p.r(U)p.r(A)p.r(U)p.r(U)p.r(C)p.r(C)p.r(G)p.r(C)p.r(G)p.r(U)p.r(A)p.[s4r](C)p.[s4r](G)p.r(T)p.r(T)}$$$RNA1{StrandType:ss}|RNA2{StrandType:as}$”, the target mRNA knockdown is 92%.

Values taken from the OligoGym collection.
